Assay results published in the supplement of paper PMC10307832.

Assays:
Assay in all cases: relative viability (nuclei count vs DMSO), 5 days (fraction); higher = more cells survive
[1] = compound: CC1=CC(=NN1)NC2=CC(=NC(=N2)/C=C/C3=CC=CC=C3)N4CCN(CC4)C
Outline: (§1)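 Cells of lung cancer lines were placed in 1536-well plates and kept overnight at 37 °C. Pinning then delivered five library-drug doses (not always all listed), spaced by √10, onto plates anchored with vehicle, and the cells were left 5 days without changing medium. One step fixed, permeabilised and stained them with Hoechst, and MetaXpress counted nuclei in 4× images. Viability, as a median over plates, is treated-well nuclei divided by vehicle-well nuclei, with acceptance only at control CV below 25% and at least one doubling.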

Obatoclax = compound: COC1=CC(c2cc3ccccc3[nH]2)=N/C1=C\c1[nH]c(C)cc1C [Obatoclax]
Outline: as §1

Bortezomib = compound: CC(C)C[C@H](NC(=O)[C@H](Cc1ccccc1)NC(=O)c1cnccn1)B(O)O [Bortezomib]
Outline: as §1

NCI-H650
relative viability ([1]; 0.08 µM): 0.701 | relative viability ([1]; 0.253 µM): 1.15 | relative viability ([1]; 0.8 µM): 1.1 | relative viability ([1]; 2.53 µM): 0.492 | relative viability ([1]; 8 µM): 0.208 | relative viability (Obatoclax; 0.01 µM): 1.02 | relative viability (Obatoclax; 0.03162 µM): 0.765 | relative viability (Obatoclax; 0.3162 µM): 0.742 | relative viability (Obatoclax; 1 µM): 0.445 | relative viability (Bortezomib; 0.000632 µM): 0.97 | relative viability (Bortezomib; 0.002 µM): 1.03 | relative viability (Bortezomib; 0.002 µM, anchor plate): 0.902 | relative viability (Bortezomib; 0.006325 µM): 0.689 | relative viability (Bortezomib; 0.02 µM): 0.281
